# Patent publication US7317013B2 (priority 2003, dated 2008)
# Structures can show the parent of a compound that is named as a salt.
# Test system: not given
# Experiment: not given
# Conditions: not given
row,Structure (SMILES),melting point [°C]
1,N=C(NCCCCC1CCN(CCCN)CC1)NC(=O)c1nc(Cl)c(N)nc1N (as salt: hydrochloride),105 to 108
2,N=C(NCCCCC1CCN(CCCO)CC1)NC(=O)c1nc(Cl)c(N)nc1N (as salt: hydrochloride),165 to 167
3,N=C(N)NCCCN1CCC(CCCCNC(=N)NC(=O)c2nc(Cl)c(N)nc2N)CC1 (as salt: hydrochloride),176 to 178
4,N=C(NCCCCC1CCN(CC(O)CO)CC1)NC(=O)c1nc(Cl)c(N)nc1N (centres unmarked),188 to 191
5,N=C(NCCCCC1CCN(CCN)CC1)NC(=O)c1nc(Cl)c(N)nc1N (as salt: hydrochloride),> 200

# Molecular target: T1, airway epithelial sodium currents (epithelial Na+ channel, ENaC) (Canis lupus familiaris, UniProt A0A8I3MKE6+A0A8I3Q679+Q95165)
# T1 sequence (A0A8I3Q679 1-649): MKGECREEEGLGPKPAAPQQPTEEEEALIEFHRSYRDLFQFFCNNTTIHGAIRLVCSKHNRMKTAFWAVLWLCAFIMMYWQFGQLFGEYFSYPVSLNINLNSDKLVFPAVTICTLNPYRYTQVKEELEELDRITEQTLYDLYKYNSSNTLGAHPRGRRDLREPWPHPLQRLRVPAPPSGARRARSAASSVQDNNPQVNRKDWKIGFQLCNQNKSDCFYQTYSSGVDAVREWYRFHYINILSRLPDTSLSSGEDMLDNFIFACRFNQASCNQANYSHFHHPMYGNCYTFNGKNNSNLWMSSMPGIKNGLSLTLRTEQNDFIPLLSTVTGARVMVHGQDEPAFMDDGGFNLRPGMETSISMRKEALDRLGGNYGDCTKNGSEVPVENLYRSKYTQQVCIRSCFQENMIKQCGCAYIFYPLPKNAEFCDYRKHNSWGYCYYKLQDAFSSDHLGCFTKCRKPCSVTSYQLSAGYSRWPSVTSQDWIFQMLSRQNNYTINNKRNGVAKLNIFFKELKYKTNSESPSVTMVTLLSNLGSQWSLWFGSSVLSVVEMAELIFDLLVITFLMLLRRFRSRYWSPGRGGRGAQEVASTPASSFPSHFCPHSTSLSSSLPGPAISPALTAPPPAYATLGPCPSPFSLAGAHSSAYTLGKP
# T1 sequence (Q95165 1-641): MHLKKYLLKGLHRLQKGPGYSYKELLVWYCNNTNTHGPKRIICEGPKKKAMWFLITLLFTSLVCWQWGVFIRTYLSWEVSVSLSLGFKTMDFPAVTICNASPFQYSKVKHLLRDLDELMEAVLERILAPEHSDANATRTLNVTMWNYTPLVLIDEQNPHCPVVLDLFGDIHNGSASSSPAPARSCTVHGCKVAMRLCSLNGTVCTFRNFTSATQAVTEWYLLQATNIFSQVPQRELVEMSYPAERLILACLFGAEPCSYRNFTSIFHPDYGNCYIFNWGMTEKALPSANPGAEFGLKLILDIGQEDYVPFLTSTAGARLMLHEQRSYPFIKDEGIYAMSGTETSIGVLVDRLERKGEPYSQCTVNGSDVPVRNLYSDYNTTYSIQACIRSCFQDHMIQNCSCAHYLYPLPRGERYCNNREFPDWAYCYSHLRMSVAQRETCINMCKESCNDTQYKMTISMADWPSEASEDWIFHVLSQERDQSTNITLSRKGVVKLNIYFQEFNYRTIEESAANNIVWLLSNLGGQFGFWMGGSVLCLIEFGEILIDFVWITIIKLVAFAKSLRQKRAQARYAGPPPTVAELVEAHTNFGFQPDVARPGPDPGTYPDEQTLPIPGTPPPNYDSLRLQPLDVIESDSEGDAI
# T1 sequence (A0A8I3MKE6 1-646): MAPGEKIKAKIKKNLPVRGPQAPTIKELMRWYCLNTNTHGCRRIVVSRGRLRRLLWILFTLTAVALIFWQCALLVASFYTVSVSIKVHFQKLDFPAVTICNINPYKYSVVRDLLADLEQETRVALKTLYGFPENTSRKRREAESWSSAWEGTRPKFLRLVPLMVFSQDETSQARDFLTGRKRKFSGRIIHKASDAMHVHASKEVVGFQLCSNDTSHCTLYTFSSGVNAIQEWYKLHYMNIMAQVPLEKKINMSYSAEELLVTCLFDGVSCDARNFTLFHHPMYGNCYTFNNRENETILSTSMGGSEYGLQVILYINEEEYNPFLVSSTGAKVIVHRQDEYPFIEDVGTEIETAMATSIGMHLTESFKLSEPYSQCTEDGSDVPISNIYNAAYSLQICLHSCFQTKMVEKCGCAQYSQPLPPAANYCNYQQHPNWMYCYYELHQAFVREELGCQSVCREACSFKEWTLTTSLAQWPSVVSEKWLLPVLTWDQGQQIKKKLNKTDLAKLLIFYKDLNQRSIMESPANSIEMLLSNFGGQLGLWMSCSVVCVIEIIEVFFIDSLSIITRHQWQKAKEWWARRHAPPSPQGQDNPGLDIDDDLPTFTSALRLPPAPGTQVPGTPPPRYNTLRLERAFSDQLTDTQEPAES
# Experiment: Sodium channel blocking activity: inhibition of short circuit current (ISC) in airway epithelial monolayers mounted in Ussing chambers
# Format: cell-based, canine
# Conditions: lumenal drug addition, bronchial epithelia, mean ± spread (n in cell)
# Experimental: One assay used to assess mechanism of action and/or potency of the compounds of the present invention involves the determination of lumenal drug inhibition of airway epithelial sodium currents measured under short circuit current (ISC) using airway epithelial monolayers mounted in Ussing chambers. Cells obtained from freshly excised human, dog, sheep or rodent airways are seeded onto porous 0.4 micron Snapwell™ Inserts (CoStar), cultured at air-liquid interface (ALI) conditions in hormonally defined media, and assayed for sodium transport activity (ISC) while bathed in Krebs Bicarbonate Ringer (KBR) in Using chambers. All test drug additions are to the lumenal bath with half-log dose addition protocols (from 1×10^−11 M to 3×10^−5 M), and the cumulative change in ISC (inhibition) recorded. All drugs are prepared in dimethyl sulfoxide as stock solutions at a concentration of 1×10^−2 M and stored at −20° C. Eight preparations are typically run in parallel; two preparations per run incorporate amiloride and/or benzamil as positive controls. After the maximal concentration (5×10^−5 M) is administered, the lumenal bath is exchanged three times with fresh drug-free KBR solution, and the resultant ISC measured after each wash for approximately 5 minutes in duration. Reversibility is defined as the percent return to the baseline value for sodium current after the third wash. All data from the voltage clamps are collected via a computer interface and analyzed off-line.
# Dose-effect relationships for all compounds are considered and analyzed by the Prism 3.0 program. IC50 values, maximal effective concentrations, and reversibility are calculated and compared to amiloride and benzamil as positive controls.
# Statistics: Data were analyzed using SYSTAT for Windows, version 5. Data were analyzed using a two-way repeated ANOVA (to assess overall effects), followed by a paried t-test to identify differences between specific pairs. Significance was accepted when P was less than or equal to 0.05. […] The compounds can be further tested tested for potency in canine bronchial epithelia using the in vitro assay described above. The results for the compounds of the present invention are reported as fold-enhancement values relative to amiloride.
row,Structure (SMILES),EC50 [nM]
1,Cl.Cl.Cl.N=C(N)NCCCN1CCC(CCCCNC(=N)NC(=O)c2nc(Cl)c(N)nc2N)CC1 [compound 25795],37 ± 5

# Same assay, conditions: relative potency for PSA 4022 = 100 using EC50 from PSA 4022 in same run
row,Structure (SMILES),Fold Amiloride** (PSA 4022 = 100)
1,N=C(NCCCCC1CCN(CCCO)CC1)NC(=O)c1nc(Cl)c(N)nc1N [compound 25310],5 ± 2 (n = 8)
2,N=C(NCCCCC1CCN(CCN)CC1)NC(=O)c1nc(Cl)c(N)nc1N [compound 25455],5 ± 1 (n = 7)
3,CC(C)(C)OC(=O)N=C(NCCCN1CCC(CCCCNC(=N)NC(=O)c2nc(Cl)c(N)nc2N)CC1)NC(=O)OC(C)(C)C [compound 25569],41 ± 9 (n = 9)
4,N=C(NCCCCC1CCN(CC(O)CO)CC1)NC(=O)c1nc(Cl)c(N)nc1N (centres unmarked) [compound 25456],6 ± 2 (n = 7)
5,N=C(NCCCCC1CCN(CCO)CC1)NC(=O)c1nc(Cl)c(N)nc1N [compound 25193],8 ± 3 (n = 6)
6,Cl.Cl.Cl.N=C(N)NCCCN1CCC(CCCCNC(=N)NC(=O)c2nc(Cl)c(N)nc2N)CC1 [compound 25795],18 ± 7 (n = 4)
7,N=C(NCCCCC1CCN(CCCN)CC1)NC(=O)c1nc(Cl)c(N)nc1N [compound 25510],3 ± 9 (n = 7)
8,CC(C)(C)OC(=O)NCCCN1CCC(CCCCNC(=N)NC(=O)c2nc(Cl)c(N)nc2N)CC1 [compound 25452],8 ± 1 (n = 6)
